The values below come from article PMC7382147, “An effective UFLC–MS/MS method used to study pharmacokinetics of major constituents of Fukeqianjin formula in rat plasma” (Chinese Medicine, 2020).

A short description of series [1]: Pharmacokinetic study in rat plasma after oral administration of FKQJF extract (UFLC–MS/MS). It counts as in vivo, Sprague-Dawley (SD) rats. The following applies: for AUC(0-inf) / AUC(0-t) / Cmax / half-life / MRT last / MRT inf / Tmax: Sprague-Dawley, oral FKQJF extract, single dose 3.2 g/kg, mean ± SD; for MRT last: read-out: MRT0→t; for MRT inf: read-out: MRT0→∞; for Tmax: read-out: Tmax. The protocol:
(§1) Aliquots of 100 μL plasma samples were mixed with 10 μL I.S. samples (1 μg/mL, in MeOH), then added with 500 μL ACN, respectively, and vortexed for 5 min, centrifugated at 10,000 rpm for 10 min, the supernatants were transferred into clean vials and dried in a vacuum centrifugal concentrator at 1200 rpm, 37 °C. After that, 100 μL ACN was added and ultrasonic (frequency 40 kHz, power 250 W) extracted for 5 min to dissolve the dry residue, vortexed for 1 min and centrifugated at 10,000 rpm for 5 min, 1 μL of each final supernatant was injected into UFLC–MS/MS for analysis.
An 8050 UFLC–MS/MS system equipped with LC-30A binary pump, a SIL-30AC autosampler, a SPD-M30A PDA detector, a CTO-20AC column oven, and a 8050 triple quadrupole mass spectrometer with an electrospray ionization source (ESI) was applied to detect and quantify FKQJF compounds in plasma samples. Data were acquired and processed with the software LabSolution (Ver. 5.6).
A Kinetex XB-C18 HPLC column (100 × 2.1 mm, 2.6 μm) linked with an equivalent guard column was used for chromatographic separation. The aqueous phase contained 0.2% formic acid was used as mobile phase A, and organic phase ACN as mobile phase B. The gradient elution method using in this program was: 3–5 min, 28–31% B; 5–7 min, 31–34% B; 7–9 min, 34–65% B; 9–10 min, 65–95% B; 10–11.5 min, 95% B. The flow rate of mobile phase, column temperature and autosampler temperature was 0.4 mL/min, 30 °C and 4 °C, respectively. The injection volume of each sample was set as 1 μL. The main MS spectrum parameters were set as follows: the flow rate of drying gas (N2) was 10.0 L/min; the atomized gas was 3.0 L/min and the heating gas flow rate was 10.0 L/min. The main temperatures of interface, desolvation and heat block was 300 °C, 250 °C and 400 °C, respectively. And, the interface and detector voltage were 3 kV and 1.8 kV.
Rats were divided into a blank group and a FKQJF administration group (6 rats for each), and fasted for 24 h. Each rat of the administration group was given FKQJF extract suspension at a single dose of 3.2 g FKQJF/kg body weight through oral administration in parallel. Blood samples (0.25 mL) were gathered from the orbital venous plexus of each rat, with FKQJF group gathered at 14 serial timepoints (6 rats for each) as 0.083 h, 0.16 h, 0.33 h, 0.5 h, 0.75 h, 1.0 h, 1.5 h, 2 h, 3 h, 4 h, 6 h, 8 h, 12 h and 24 h after drug administration. The blood samples were centrifugated at 6000g for 10 min to isolate plasma and stored at − 20 °C for further analysis.
Data were analyzed using the Drug and Statistics (DAS) Software version 2.0 (DAS 2.0, Mathematical Pharmacology Professional Committee of China, Shanghai, China). The non-compartmental mode was applied to obtain the following PK parameters: area under the plasma concentration–time curve from time zero to the time of last quantifiable concentration (AUC0→t) and area under the plasma concentration–time curve to time infinity (AUC0→∞), the elimination half-life (t1/2), mean retention time to last sampling time (MRT0→t) and mean retention time to infinity (MRT0→∞). The maximum plasma concentration (Cmax) and the time to maximum concentration (Tmax) were observed directly from the concentration–time (C–T) curves and measured data. All data are presented as mean ± SD.

Series [2] in a line: Ordinary stability of QC samples (room temperature for 8 h). The settings on record: plasma QC, room temperature 8 h. The format is physicochemical, rat. The protocol: as §1
(§2) Six replicates of low, medium and high concentrations of quality control (QC) samples were used to verify the stabilities under different conditions including: place at room temperature for 8 h, freeze (− 20 °C) and thaw for three times, and store at − 20 °C for 20 days.

Series [3] is described as follows: Freeze–thaw stability of QC samples (−20 °C, three times). It counts as physicochemical, rat. The following applies: plasma QC, freeze (−20 °C) and thaw three times. The procedure: as §1, §2
Series [4] can be described thus: Long-term stability of QC samples (−20 °C for 20 days). The settings on record: plasma QC. It counts as physicochemical, rat. The procedure:
as §1, §2

The mark [5] stands for this setting: oral FKQJF extract 3.2 g/kg, post dose.

With `O=C(O)c1ccccc1O` [Analyte 8, salicylic acid], the AUC(0-inf) in series [1] came to 2140 ± 168 ng·h/mL. Further, the AUC(0-t) in series [1] is 1800 ± 155 ng·h/mL. The Cmax in series [1] turned out to be 433 ± 53.1 ng/mL. Further, the half-life in series [1] is 2.7 ± 0.54 h. In addition, in series [1], the MRT last was determined as 2.88 ± 0.15 h. Further, in series [1], the MRT inf came to 4.31 ± 0.67 h. For the same compound, the time to peak (Tmax) in series [1] is 1.67 ± 0.29 h. Further, the “shape of the plasma concentration–time curve” value (shortened to “shape”) in series [1] (oral FKQJF extract 3.2 g/kg) was “double-peaks”. Besides, the “Ordinary stability Mean” value in series [2] (spiked 50 ng/mL) was 95.42%; in series [2] (spiked 250 ng/mL), 108.42%; in series [2] (spiked 500 ng/mL) it was 103.60%. Moreover, the “Freeze–thaw stability Mean” value in series [3] (spiked 50 ng/mL) was found to be 80.11%; in series [3] (spiked 250 ng/mL) it was 102.50%; in series [3] (spiked 500 ng/mL), 88.21%. Further, the “Long-term stability Mean” value in series [4] (spiked 50 ng/mL) was determined as 109.80%; in series [4] (spiked 250 ng/mL), 114.13%; in series [4] (spiked 500 ng/mL), 87.97%.
In series [1], `COc1cc2c(cc1O)CC[n+]1cc3c(OC)c(OC)ccc3cc1-2` [Analyte 9, jatrorrhizine] showed an area under the curve AUC(0-inf) of 2550 ± 277 ng·h/mL, an exposure AUC(0-t) of 1090 ± 110 ng·h/mL, a Cmax of 270 ± 24 ng/mL and a half-life of 9.65 ± 4.91 h. Moreover, in series [1], the MRT last amounted to 8.96 ± 0.4 h, the MRT inf worked out at 10.5 ± 4.72 h and the Tmax was 1.83 ± 0.29 h. The “Ordinary stability Mean” value in series [2] (spiked 25 ng/mL) worked out at 104.79%. Also, in series [2] (spiked 75 ng/mL), the “Ordinary stability Mean” value is recorded as 93.01%. In addition, the “Ordinary stability Mean” value in series [2] (spiked 150 ng/mL) amounted to 92.51%. The “Freeze–thaw stability Mean” value in series [3] (spiked 25 ng/mL) came out at 86.77%. Further, the “Freeze–thaw stability Mean” value in series [3] (spiked 150 ng/mL) was 113.07%. The “Long-term stability Mean” value in series [4] (spiked 25 ng/mL) is given as 80.63%. Also, in series [4] (spiked 75 ng/mL), the “Long-term stability Mean” value was determined as 91.97%. Also, in series [4] (spiked 150 ng/mL), the “Long-term stability Mean” value turned out to be 98.06%.
With `COc1ccc(-c2coc3cc(O[C@@H]4O[C@H](CO)[C@@H](O)[C@H](O)[C@H]4O)ccc3c2=O)cc1` [Analyte 10, ononin], in series [1], the AUC(0-inf) was found to be 375 ± 153 ng·h/mL, the AUC(0-t) was found to be 370 ± 156 ng·h/mL, the Cmax came to 192 ± 32 ng/mL and the half-life is 1.64 ± 0.52 h. In series [1], the MRT last was 2.54 ± 1.12 h, the MRT inf was 3.13 ± 1.66 h and the Tmax was found to be 1.33 ± 0.58 h. In addition, in series [1] (oral FKQJF extract 3.2 g/kg), the “shape” value is recorded as “double-peaks”. Also, the “Ordinary stability Mean” value in series [2] (spiked 50 ng/mL) is recorded as 95.59%. Also, the “Ordinary stability Mean” value in series [2] (spiked 250 ng/mL) came to 82.57%. For the same compound, the “Ordinary stability Mean” value in series [2] (spiked 500 ng/mL) was found to be 103.90%. In series [3] (spiked 50 ng/mL), the “Freeze–thaw stability Mean” value came out at 118.81%. Also, the “Freeze–thaw stability Mean” value in series [3] (spiked 250 ng/mL) is on record as 102.95%. Moreover, the “Freeze–thaw stability Mean” value in series [3] (spiked 500 ng/mL) amounted to 81.68%. Moreover, the “Long-term stability Mean” value in series [4] (spiked 50 ng/mL) is given as 95.03%. Also, the “Long-term stability Mean” value in series [4] (spiked 250 ng/mL) amounted to 81.88%. For the same compound, in series [4] (spiked 500 ng/mL), the “Long-term stability Mean” value is 107.95%.
In series [1], `COc1cc2c(cc1OC)-c1cc3ccc(OC)c(OC)c3c[n+]1CC2` [Analyte 11, palmatine] showed an AUC(0-inf) of 1640 ± 155 ng·h/mL, an AUC(0-t) of 691 ± 93.3 ng·h/mL, a Cmax of 134 ± 31.8 ng/mL and a half-life of 9.16 ± 2.09 h. In series [1], the MRT last worked out at 11 ± 0.99 h, the MRT inf was determined as 14.2 ± 8.89 h and the time of peak concentration (Tmax) was 1.67 ± 0.29 h. Besides, the “Ordinary stability Mean” value in series [2] (spiked 5 ng/mL) was found to be 92.36%. For the same compound, in series [2] (spiked 100 ng/mL), the “Ordinary stability Mean” value is given as 81.64%. The “Freeze–thaw stability Mean” value in series [3] (spiked 5 ng/mL) is 94.51%. In addition, the “Freeze–thaw stability Mean” value in series [3] (spiked 100 ng/mL) is reported as 98.74%. Besides, the “Long-term stability Mean” value in series [4] (spiked 5 ng/mL) came to 87.02%. The “Long-term stability Mean” value in series [4] (spiked 100 ng/mL) came to 101.38%. Besides, the “Long-term stability Mean” value in series [4] (spiked 200 ng/mL) is 89.65%.
In series [1], `C=C1CC[C@@H]2[C@](C)(CO)[C@H](O)CC[C@@]2(C)[C@@H]1C/C=C1/C(=O)OC[C@H]1O` [Analyte 12, andrographolide] gave an AUC(0-inf) of 480 ± 71.9 ng·h/mL, an area under the curve AUC(0-t) of 442 ± 59.5 ng·h/mL, a Cmax of 186 ± 19 ng/mL and a half-life of 1.79 ± 0.2 h. In addition, in series [1], the MRT last was found to be 2.45 ± 0.19 h, the MRT inf was 3.1 ± 0.33 h and the Tmax came to 1 ± 0.43 h. The “shape” value in series [1] (oral FKQJF extract 3.2 g/kg) was “double-peaks”. Besides, in series [1] (setting [5]), the “time of first peak of the concentration–time curve” value lay within 0 to 1 h and the “time of second peak of the concentration–time curve” value was in the range of 1.5 to 3 h. Besides, the “Ordinary stability Mean” value in series [2] (spiked 60 ng/mL) is reported as 115.56%. Moreover, in series [2] (spiked 300 ng/mL), the “Ordinary stability Mean” value is given as 107.50%. For the same compound, in series [2] (spiked 600 ng/mL), the “Ordinary stability Mean” value came out at 85.93%. Further, the “Freeze–thaw stability Mean” value in series [3] (spiked 60 ng/mL) was 84.52%. The “Freeze–thaw stability Mean” value in series [3] (spiked 300 ng/mL) is listed as 86.83%. The “Freeze–thaw stability Mean” value in series [3] (spiked 600 ng/mL) was determined as 93.19%. Further, in series [4] (spiked 60 ng/mL), the “Long-term stability Mean” value was 115.89%. Besides, in series [4] (spiked 300 ng/mL), the “Long-term stability Mean” value is 94.37%. Besides, the “Long-term stability Mean” value in series [4] (spiked 600 ng/mL) is reported as 96.64%.
For the compound `COc1ccc2cc3[n+](cc2c1OC)CCc1cc2c(cc1-3)OCO2` [Analyte 13, berberine], in series [1], the AUC(0-inf) is 5630 ± 2430 ng·h/mL, the AUC(0-t) was 3800 ± 171 ng·h/mL, the Cmax is 619 ± 84.6 ng/mL and the half-life is 38.8 ± 53.2 h. In series [1], the MRT last was 8.04 ± 0.88 h, the MRT inf amounted to 39 ± 46.5 h and the Tmax is 8 h. Further, the “shape” value in series [1] (oral FKQJF extract 3.2 g/kg) was “double-peaks”. Moreover, the “Ordinary stability Mean” value in series [2] (spiked 5 ng/mL) came out at 84.57%. Further, the “Ordinary stability Mean” value in series [2] (spiked 100 ng/mL) stood at 103.56%. Moreover, the “Ordinary stability Mean” value in series [2] (spiked 200 ng/mL) is 113.97%. In addition, the “Freeze–thaw stability Mean” value in series [3] (spiked 5 ng/mL) came out at 97.72%. In series [3] (spiked 100 ng/mL), the “Freeze–thaw stability Mean” value is 110.44%. In addition, the “Freeze–thaw stability Mean” value in series [3] (spiked 200 ng/mL) stood at 104.87%. Moreover, the “Long-term stability Mean” value in series [4] (spiked 5 ng/mL) is listed as 102.75%. In series [4] (spiked 100 ng/mL), the “Long-term stability Mean” value is 81.78%. Further, in series [4] (spiked 200 ng/mL), the “Long-term stability Mean” value was 114.48%.
